This note sets out measurements from patent US4659726A, “Novel 4,5-Bis (4-methoxyphenyl)-2-(pyrrol-2-yl) thiazoles and pharmaceutical composition containing the same” (Kanebo, Ltd., priority 1984, dated 1987).

For series [1], the system named is Platelet aggregation (arachidonate). The series can be described thus: Platelet aggregation inhibitory activity, ex vivo after oral administration to guinea pigs, sodium arachidonate as aggregating agent. The series is classed as in vivo, Hartley strain male guinea pigs. To be noted: Cavia porcellus, oral, guinea pig, blood collected after 3 hours, 1.0 mM sodium arachidonate (50 μl), 50% inhibitory rate, read-out: Platelet aggregation inhibitory activity Arachidonate ED50. The protocol:
(§1) Hartley strain male guinea pigs (weighing 300-350 g, one group: three animals) were fasted overnight, and to the animals were orally administered a solution or suspension of the test compounds in corn oil-10% arabic gum. […] The citrated blood thus obtained was centrifuged at 1,700 rpm for 10 minutes, and a platelet-rich plasma (PRP) was obtained from the supernatant. After isolating PRP, the remaining blood was further centrifuged at 3,000 rpm for 10 minutes, and a platelet-poor plasma (PPP) was obtained from the supernatant.
(§2) The PRP (450 μl) thus obtained was incubated at 37° C. for 3 minutes, and thereto was added 1.0 mM sodium arachidonate (50 μl) as an aggregating agent, and then the platelet aggregation thereof was measured with Platelet Aggregation Profiler® (Model PAP-3, manufactured by Bio Data Corp.) while using the PPP obtained above as a blank. As a control, as to animals to which no test compound was administered, the platelet aggregation rate was measured likewise.
(§3) The platelet aggregation inhibitory rate was calculated by the following equation. [formula]

Series [2] deals with Platelet aggregation (collagen). The series can be described thus: Platelet aggregation inhibitory activity, ex vivo after oral administration to guinea pigs, collagen as aggregating agent. It counts as in vivo, Hartley strain male guinea pigs. To be noted: Cavia porcellus, oral, guinea pig, blood collected after 3 hours, 100 μg/ml collagen suspension (50 μl), 50% inhibitory rate, read-out: Platelet aggregation inhibitory activity Collagen ED50. As for the experimental part: as §1, §2, §3
Moreover, the above method was repeated except that 100 μg/ml collagen suspension (50 μl) was used as an aggregating agent instead of sodium arachidonate.

The nature of a further series: in vivo. To be noted: mouse, oral, ddy male mice, deaths counted at 10 days, Weil method, read-out: Acute toxicity LD50. The source says: ddy male mice (weighing 18-23 g, one group: 5 animals) were fasted overnight, and thereto was orally administered a suspension of the test compounds in 1% arabic gum solution.

Molecules are shown by their SMILES. A value given as a limit tells only on which side of the number the result lay.

Turning to `C#CCOC(=O)Cn1cccc1-c1nc(-c2ccc(OC)cc2)c(-c2ccc(OC)cc2)s1` [Ex. 30, Propargyl 2-[4,5-bis(4-methoxyphenyl)thiazol-2-yl]pyrrole-1-acetate], the median effective dose (ED50) in series [1] amounted to 0.039 mg/kg; in series [2], 0.068 mg/kg. For the same compound, the LD50 at 240 h in the series “in vivo” is over 3000 mg/kg.
As to `COc1ccc(-c2nc(-c3cccn3CC(=O)OCc3ccccc3)sc2-c2ccc(OC)cc2)cc1` [Ex. 31, benzyl 2-[4,5-bis(4-methoxyphenyl)thiazol-2-yl]pyrrole-1-acetate], the figures for the ED50 in series [1] and in series [2] were 0.11 mg/kg and 0.16 mg/kg, respectively. Besides, the LD50 at 240 h in “in vivo” was over 3000 mg/kg.
Taken in the same sequence, the figures for `CCOCn1cccc1-c1nc(-c2ccc(OC)cc2)c(-c2ccc(OC)cc2)s1` [Ex. 36, 4,5-Bis(4-methoxyphenyl)-2-(1-ethoxymethylpyrrol-2-yl)thiazole] were 0.45 mg/kg, 0.98 mg/kg and over 3000 mg/kg.
The like results for `CCCOCn1cccc1-c1nc(-c2ccc(OC)cc2)c(-c2ccc(OC)cc2)s1` [Ex. 37, 4,5-Bis(4-methoxyphenyl)-2-(1-n-propoxymethylpyrrol-2-yl)thiazole] were, in that order, 0.49 mg/kg, 0.61 mg/kg and over 3000 mg/kg.
Taken in the same sequence, the figures for `CCOCCn1cccc1-c1nc(-c2ccc(OC)cc2)c(-c2ccc(OC)cc2)s1` [Ex. 38, 4,5-bis(4-methoxyphenyl)-2-[1-(2-ethoxyethyl)pyrrol-2-yl]thiazole] were 0.09 mg/kg, 0.29 mg/kg and over 3000 mg/kg.
As to `C=COCCn1cccc1-c1nc(-c2ccc(OC)cc2)c(-c2ccc(OC)cc2)s1` [Ex. 39, 4,5-bis(4-methoxyphenyl)-2-[1-(2-vinyloxyethyl)pyrrol-2-yl]thiazole], the ED50 turned out to be 0.33 mg/kg in series [1] and 0.49 mg/kg in series [2]. Moreover, the LD50 at 240 h in “in vivo” is over 3000 mg/kg.
As for `CCSCCn1cccc1-c1nc(-c2ccc(OC)cc2)c(-c2ccc(OC)cc2)s1` [Ex. 40, 4,5-bis(4-methoxyphenyl)-2-[1-(2-ethylthioethyl)pyrrol-2-yl]thiazole], the figures for the ED50 in series [1] and in series [2] were 0.41 mg/kg and 0.51 mg/kg, respectively. Further, in the series “in vivo”, the LD50 at 240 h is over 3000 mg/kg.
Regarding `CCOCCCn1cccc1-c1nc(-c2ccc(OC)cc2)c(-c2ccc(OC)cc2)s1` [Ex. 41, 4,5-bis(4-methoxyphenyl)-2-[1-(3-ethoxypropyl)pyrrol-2-yl]thiazole], the ED50 came to 0.3 mg/kg in series [1] and 0.35 mg/kg in series [2]. The LD50 at 240 h in “in vivo” was over 3000 mg/kg.

In general, ED50 refers to the dose that gives a 50% effect, or the effect in half of the subjects. As usually defined, the LD50 is the dose expected to kill half of the subjects tested.
